Source: ChEMBL document CHEMBL5325488, “Discovery of SMD-3040 as a Potent and Selective SMARCA2 PROTAC Degrader with Strong in vivo Antitumor Activity” (J Med Chem, 2023)

Legend:
[1] = biological target: T1, von Hippel-Lindau disease tumor suppressor/SWI/SNF-related matrix-associated actin-dependent regulator of chromatin subfamily A member 4 (Homo sapiens, UniProt P51532+P40337); assay: PROTAC activity at VHL/C-terminal HiBiT fused SMARCA4 in human HeLa cells assessed as induction of SMARCA4 degradation by measuring maximal efficacy at 0.001 to 10 uM incubated for 24 hrs by Nano-Glo HiBiT analysis relative to control; type: cell-based; details: dose 0.001-10 µM
[2] = biological target: T2, von Hippel-Lindau disease tumor suppressor/SWI/SNF-related matrix-associated actin-dependent regulator of chromatin subfamily A member 2 (Homo sapiens, UniProt P51531+P40337); assay: In vivo PROTAC activity at VHL/SMARCA2 in SCID mouse xenografted with human NCI-H838 cells assessed as remaining activity in tumor at 50 mg/kg, iv administered as single dose measured after 24 hrs by Western blotting analysis (reference value: 100 +/- 7% ); type: functional, organism-based
NCI-H1792 = assay: Antiproliferative activity against human NCI-H1792 cells expressing wild-type SMARCA2 assessed as cell growth inhibition by measuring maximal efficacy measured after 7 days by WST-8 assay relative to control; type: functional; details: time 7 day
[3] = biological target: T1, von Hippel-Lindau disease tumor suppressor/SWI/SNF-related matrix-associated actin-dependent regulator of chromatin subfamily A member 4; assay: PROTAC activity at VHL/wild-type SMARCA4 in human SK-MEL-28 cells assessed as induction of SMARCA4 degradation incubated for 24 hrs by Western blotting analysis; type: cell-based
Target sequence in this assay (P51532 whole entry, the tested form may be a part): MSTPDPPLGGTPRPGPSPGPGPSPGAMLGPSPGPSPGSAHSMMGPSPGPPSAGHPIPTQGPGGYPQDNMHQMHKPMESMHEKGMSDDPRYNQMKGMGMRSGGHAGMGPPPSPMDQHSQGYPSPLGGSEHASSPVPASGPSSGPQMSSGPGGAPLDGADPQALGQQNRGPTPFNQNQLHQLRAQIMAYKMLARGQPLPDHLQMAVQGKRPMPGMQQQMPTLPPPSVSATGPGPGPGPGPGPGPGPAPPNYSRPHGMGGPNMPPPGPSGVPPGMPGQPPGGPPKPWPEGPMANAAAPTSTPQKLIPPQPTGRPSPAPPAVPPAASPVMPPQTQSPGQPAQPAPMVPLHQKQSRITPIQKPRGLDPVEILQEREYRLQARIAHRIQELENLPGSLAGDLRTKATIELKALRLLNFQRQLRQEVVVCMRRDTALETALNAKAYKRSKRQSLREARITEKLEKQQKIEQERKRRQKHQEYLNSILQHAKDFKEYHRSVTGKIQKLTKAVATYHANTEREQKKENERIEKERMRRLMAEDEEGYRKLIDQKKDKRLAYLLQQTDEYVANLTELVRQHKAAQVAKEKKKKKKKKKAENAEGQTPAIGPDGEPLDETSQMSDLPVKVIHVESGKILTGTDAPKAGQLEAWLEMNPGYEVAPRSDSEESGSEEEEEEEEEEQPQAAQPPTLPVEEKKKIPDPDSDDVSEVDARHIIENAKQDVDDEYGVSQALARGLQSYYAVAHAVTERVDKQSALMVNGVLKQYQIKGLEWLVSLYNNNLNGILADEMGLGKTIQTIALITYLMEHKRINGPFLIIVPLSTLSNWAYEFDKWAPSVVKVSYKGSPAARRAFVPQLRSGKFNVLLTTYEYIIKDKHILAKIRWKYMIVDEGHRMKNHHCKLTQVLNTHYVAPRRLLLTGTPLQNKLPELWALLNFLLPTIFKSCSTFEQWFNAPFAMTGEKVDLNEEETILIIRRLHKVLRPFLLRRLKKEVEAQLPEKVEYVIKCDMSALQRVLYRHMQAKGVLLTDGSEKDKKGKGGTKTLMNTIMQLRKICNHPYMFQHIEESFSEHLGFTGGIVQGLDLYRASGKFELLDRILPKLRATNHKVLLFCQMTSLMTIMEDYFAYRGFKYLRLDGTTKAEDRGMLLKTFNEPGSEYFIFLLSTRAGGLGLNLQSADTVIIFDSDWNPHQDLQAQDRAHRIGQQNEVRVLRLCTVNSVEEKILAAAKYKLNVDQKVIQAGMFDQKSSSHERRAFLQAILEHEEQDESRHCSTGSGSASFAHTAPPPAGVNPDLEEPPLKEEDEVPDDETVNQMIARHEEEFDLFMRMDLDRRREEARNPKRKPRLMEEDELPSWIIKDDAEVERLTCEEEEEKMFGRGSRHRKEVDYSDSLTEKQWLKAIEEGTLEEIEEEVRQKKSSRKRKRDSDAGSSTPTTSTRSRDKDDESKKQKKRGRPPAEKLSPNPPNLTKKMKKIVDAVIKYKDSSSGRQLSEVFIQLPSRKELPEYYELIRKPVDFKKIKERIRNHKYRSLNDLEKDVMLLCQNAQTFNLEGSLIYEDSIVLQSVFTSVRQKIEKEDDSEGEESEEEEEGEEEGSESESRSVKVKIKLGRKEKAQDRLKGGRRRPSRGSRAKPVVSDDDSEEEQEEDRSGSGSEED
Target sequence in this assay (P40337 whole entry, the tested form may be a part): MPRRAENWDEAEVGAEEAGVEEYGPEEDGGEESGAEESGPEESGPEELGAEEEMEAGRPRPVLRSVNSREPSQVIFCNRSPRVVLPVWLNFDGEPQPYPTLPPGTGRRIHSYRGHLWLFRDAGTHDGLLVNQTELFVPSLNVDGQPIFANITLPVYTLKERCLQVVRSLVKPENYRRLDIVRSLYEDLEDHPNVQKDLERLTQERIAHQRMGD

NCI-H1299 = assay: Antiproliferative activity against SMARCA4-deficient human NCI-H1299 cells assessed as cell growth inhibition measured after 7 days by WST-8 assay; type: functional; details: NCI-H1299, 168 h, time 7 day
[4] = biological target: T2, von Hippel-Lindau disease tumor suppressor/SWI/SNF-related matrix-associated actin-dependent regulator of chromatin subfamily A member 2; assay: PROTAC activity at VHL/C-terminal HiBiT fused SMARCA2 in human HeLa cells assessed as induction of SMARCA2 degradation incubated for 1 hr by Nano-Glo HiBiT analysis; type: cell-based
Target sequence in this assay (P51531 whole entry): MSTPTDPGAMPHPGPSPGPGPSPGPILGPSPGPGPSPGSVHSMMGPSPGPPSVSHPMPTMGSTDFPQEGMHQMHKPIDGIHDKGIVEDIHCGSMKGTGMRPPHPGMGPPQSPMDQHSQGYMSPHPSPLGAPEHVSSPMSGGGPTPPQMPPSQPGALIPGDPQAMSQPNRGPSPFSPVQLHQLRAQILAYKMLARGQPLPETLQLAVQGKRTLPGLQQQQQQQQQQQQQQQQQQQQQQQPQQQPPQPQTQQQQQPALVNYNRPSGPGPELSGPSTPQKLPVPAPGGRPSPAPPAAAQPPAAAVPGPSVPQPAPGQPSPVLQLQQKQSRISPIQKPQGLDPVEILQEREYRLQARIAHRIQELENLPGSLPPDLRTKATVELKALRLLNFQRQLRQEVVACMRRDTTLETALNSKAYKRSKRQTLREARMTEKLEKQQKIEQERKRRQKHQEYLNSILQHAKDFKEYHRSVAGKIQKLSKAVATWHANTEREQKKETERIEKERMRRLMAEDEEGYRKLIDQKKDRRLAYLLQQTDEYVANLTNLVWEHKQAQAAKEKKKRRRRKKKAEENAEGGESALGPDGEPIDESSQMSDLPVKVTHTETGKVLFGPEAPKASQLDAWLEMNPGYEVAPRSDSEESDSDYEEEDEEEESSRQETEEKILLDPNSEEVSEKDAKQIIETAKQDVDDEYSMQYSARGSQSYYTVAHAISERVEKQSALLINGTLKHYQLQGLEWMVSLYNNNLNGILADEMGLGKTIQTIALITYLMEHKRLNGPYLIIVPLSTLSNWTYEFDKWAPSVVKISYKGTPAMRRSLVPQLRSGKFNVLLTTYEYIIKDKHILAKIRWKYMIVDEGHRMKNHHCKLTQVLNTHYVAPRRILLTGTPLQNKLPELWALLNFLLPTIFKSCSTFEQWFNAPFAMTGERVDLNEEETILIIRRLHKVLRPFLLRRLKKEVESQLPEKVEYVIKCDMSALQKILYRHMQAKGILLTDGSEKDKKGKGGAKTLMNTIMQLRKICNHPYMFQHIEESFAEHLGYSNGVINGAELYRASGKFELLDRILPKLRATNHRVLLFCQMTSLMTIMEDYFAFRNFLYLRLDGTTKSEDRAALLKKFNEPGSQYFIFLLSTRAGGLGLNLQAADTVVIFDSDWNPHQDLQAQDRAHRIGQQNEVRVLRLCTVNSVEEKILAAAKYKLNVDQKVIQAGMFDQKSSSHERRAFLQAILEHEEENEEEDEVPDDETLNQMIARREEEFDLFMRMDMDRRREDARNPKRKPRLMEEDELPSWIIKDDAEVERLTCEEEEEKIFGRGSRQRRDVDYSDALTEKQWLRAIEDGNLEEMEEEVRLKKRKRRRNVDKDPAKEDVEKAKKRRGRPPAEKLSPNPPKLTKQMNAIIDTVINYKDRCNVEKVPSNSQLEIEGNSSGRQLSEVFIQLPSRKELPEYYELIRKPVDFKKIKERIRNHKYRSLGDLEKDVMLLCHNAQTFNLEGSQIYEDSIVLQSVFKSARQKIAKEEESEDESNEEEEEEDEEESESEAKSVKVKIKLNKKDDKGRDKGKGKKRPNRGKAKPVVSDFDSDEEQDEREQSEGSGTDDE
Target sequence in this assay (P40337 whole entry): as the sequence (P40337 whole entry, the tested form may be a part) above

NCI-H1944 = assay: Antiproliferative activity against SMARCA4-deficient human NCI-H1944 cells assessed as cell growth inhibition measured after 7 days by WST-8 assay; type: functional; details: NCI-H1944, 168 h, time 7 day
[5] = biological target: T2, von Hippel-Lindau disease tumor suppressor/SWI/SNF-related matrix-associated actin-dependent regulator of chromatin subfamily A member 2; assay: PROTAC activity at VHL/C-terminal HiBiT fused SMARCA2 in human HeLa cells assessed as induction of SMARCA2 degradation by measuring maximal efficacy at 0.0001 to 1 uM incubated for 24 hrs by Nano-Glo HiBiT analysis relative to control; type: cell-based; details: dose 0.0001-1 µM
A549 = assay: Antiproliferative activity against SMARCA4-deficient human A549 cells assessed as cell growth inhibition by measuring maximal efficacy measured after 7 days by WST-8 assay relative to control; type: functional; details: time 7 day
[6] = biological target: T1, von Hippel-Lindau disease tumor suppressor/SWI/SNF-related matrix-associated actin-dependent regulator of chromatin subfamily A member 4; assay: In vivo PROTAC activity at VHL/SMARCA4 in SCID mouse xenografted with human MV4-11 cells assessed as reduction of SMARCA4 level in tumor at 50 mg/kg, iv administered as single dose measured after 6 hrs by Western blotting analysis; type: ADME, organism-based; parameters: scale not given: the % may be the effect or the level left
Target sequence in this assay (P51532 whole entry, the tested form may be a part): as the sequence (P51532 whole entry, the tested form may be a part) above
Target sequence in this assay (P40337 whole entry, the tested form may be a part): as the sequence (P40337 whole entry, the tested form may be a part) above

[7] = biological target: T2, von Hippel-Lindau disease tumor suppressor/SWI/SNF-related matrix-associated actin-dependent regulator of chromatin subfamily A member 2; assay: In vivo PROTAC activity at VHL/SMARCA2 in SCID mouse xenografted with human MV4-11 cells assessed as remaining activity in tumor at 50 mg/kg, iv administered as single dose measured after 6 hrs by Western blotting analysis (reference value: 100 +/- 15 % ); type: ADME, organism-based
Target sequence in this assay (P51531 whole entry): as the sequence (P51531 whole entry) above
Target sequence in this assay (P40337 whole entry): as the sequence (P40337 whole entry, the tested form may be a part) above

[8] = biological target: T1, von Hippel-Lindau disease tumor suppressor/SWI/SNF-related matrix-associated actin-dependent regulator of chromatin subfamily A member 4; assay: PROTAC activity at VHL/C-terminal HiBiT fused SMARCA4 in human HeLa cells assessed as induction of SMARCA4 degradation incubated for 1 hr by Nano-Glo HiBiT analysis; type: cell-based
Target sequence in this assay (P51532 whole entry, the tested form may be a part): as the sequence (P51532 whole entry, the tested form may be a part) above
Target sequence in this assay (P40337 whole entry, the tested form may be a part): as the sequence (P40337 whole entry, the tested form may be a part) above

[9] = biological target: T2, von Hippel-Lindau disease tumor suppressor/SWI/SNF-related matrix-associated actin-dependent regulator of chromatin subfamily A member 2; assay: In vivo PROTAC activity at VHL/SMARCA2 in SCID mouse xenografted with human MV4-11 cells assessed as reduction of SMARCA2 level in tumor at 50 mg/kg, iv administered as single dose measured after 6 hrs by Western blotting analysis; type: ADME, organism-based; parameters: scale not given: the % may be the effect or the level left
Target sequence in this assay (P51531 whole entry): as the sequence (P51531 whole entry) above
Target sequence in this assay (P40337 whole entry): as the sequence (P40337 whole entry, the tested form may be a part) above

NCI-H838 = assay: Antiproliferative activity against SMARCA4-deficient human NCI-H838 cells assessed as cell growth inhibition by measuring maximal efficacy measured after 7 days by WST-8 assay relative to control; type: functional; details: time 7 day
SK-MEL-28 = assay: Antiproliferative activity against human SK-MEL-28 cells expressing wild-type SMARCA2 assessed as cell growth inhibition measured after 7 days by WST-8 assay; type: functional; details: SK-MEL-28, 168 h, time 7 day
[10] = biological target: T1, von Hippel-Lindau disease tumor suppressor/SWI/SNF-related matrix-associated actin-dependent regulator of chromatin subfamily A member 4; assay: PROTAC activity at VHL/C-terminal HiBiT fused SMARCA4 in human HeLa cells assessed as induction of SMARCA4 degradation by measuring maximal efficacy at 0.001 to 10 uM incubated for 48 hrs by Nano-Glo HiBiT analysis relative to control; type: cell-based; details: dose 0.001-10 µM
[11] = biological target: T1, von Hippel-Lindau disease tumor suppressor/SWI/SNF-related matrix-associated actin-dependent regulator of chromatin subfamily A member 4; assay: PROTAC activity at VHL/C-terminal HiBiT fused SMARCA4 in human HeLa cells assessed as induction of SMARCA4 degradation by measuring maximal efficacy incubated for 24 hrs by Nano-Glo HiBiT analysis relative to control; type: cell-based
[12] = biological target: T2, von Hippel-Lindau disease tumor suppressor/SWI/SNF-related matrix-associated actin-dependent regulator of chromatin subfamily A member 2; assay: PROTAC activity at VHL/C-terminal HiBiT fused SMARCA2 in human HeLa cells assessed as induction of SMARCA2 degradation incubated for 24 hrs by Nano-Glo HiBiT analysis; type: cell-based
Target sequence in this assay (P51531 whole entry): as the sequence (P51531 whole entry) above
Target sequence in this assay (P40337 whole entry): as the sequence (P40337 whole entry, the tested form may be a part) above

[13] = biological target: T1, von Hippel-Lindau disease tumor suppressor/SWI/SNF-related matrix-associated actin-dependent regulator of chromatin subfamily A member 4; assay: In vivo PROTAC activity at VHL/SMARCA4 in SCID mouse xenografted with human MV4-11 cells assessed as reduction of SMARCA4 level in tumor at 50 mg/kg, iv administered as single dose measured after 48 hrs by Western blotting analysis; type: ADME, organism-based; parameters: scale not given: the % may be the effect or the level left
Target sequence in this assay (P51532 whole entry, the tested form may be a part): as the sequence (P51532 whole entry, the tested form may be a part) above
Target sequence in this assay (P40337 whole entry, the tested form may be a part): as the sequence (P40337 whole entry, the tested form may be a part) above

[14] = biological target: T2, von Hippel-Lindau disease tumor suppressor/SWI/SNF-related matrix-associated actin-dependent regulator of chromatin subfamily A member 2; assay: In vivo PROTAC activity at VHL/SMARCA2 in SCID mouse xenografted with human NCI-H838 cells assessed as reduction of SMARCA2 level in tumor at 50 mg/kg, iv administered as single dose measured after 48 hrs by Western blotting analysis; type: functional, organism-based; parameters: scale not given: the % may be the effect or the level left
[15] = biological target: T2, von Hippel-Lindau disease tumor suppressor/SWI/SNF-related matrix-associated actin-dependent regulator of chromatin subfamily A member 2; assay: In vivo PROTAC activity at VHL/SMARCA2 in SCID mouse xenografted with human NCI-H838 cells assessed as reduction of SMARCA2 level in tumor at 50 mg/kg, iv administered as single dose measured after 3 hrs by Western blotting analysis; type: functional, organism-based; parameters: scale not given: the % may be the effect or the level left
SK-MEL-5 = assay: Antiproliferative activity against SMARCA4-deficient human SK-MEL-5 cells assessed as cell growth inhibition by measuring maximal efficacy measured after 7 days by WST-8 assay relative to control; type: functional; details: time 7 day
[16] = Drug concentration in SCID mouse plasma xenografted with human MV4-11 cells at 50 mg/kg, iv measured after 48 hrs by LC-MS/MS method; type: ADME, organism-based
[17] = Drug concentration in SCID mouse tumor xenografted with human MV4-11 cells at 50 mg/kg, iv measured after 6 hrs by LC-MS/MS method; type: ADME, organism-based, Neoplasm; details: read-out: Ct
[18] = biological target: T2, von Hippel-Lindau disease tumor suppressor/SWI/SNF-related matrix-associated actin-dependent regulator of chromatin subfamily A member 2; assay: PROTAC activity at VHL/C-terminal HiBiT fused SMARCA2 in human HeLa cells assessed as induction of SMARCA2 degradation by measuring maximal efficacy incubated for 24 hrs by Nano-Glo HiBiT analysis relative to control; type: cell-based
[19] = biological target: T2, von Hippel-Lindau disease tumor suppressor/SWI/SNF-related matrix-associated actin-dependent regulator of chromatin subfamily A member 2; assay: PROTAC activity at VHL/wild-type SMARCA2 in human SK-MEL-5 cells assessed as induction of SMARCA2 degradation incubated for 24 hrs by Western blotting analysis; type: cell-based
Target sequence in this assay (P51531 whole entry): as the sequence (P51531 whole entry) above
Target sequence in this assay (P40337 whole entry): as the sequence (P40337 whole entry, the tested form may be a part) above

[20] = Drug concentration in SCID mouse plasma xenografted with human MV4-11 cells at 50 mg/kg, iv measured after 96 hrs by LC-MS/MS method; type: ADME, organism-based

Emax [1]: 57%
Activity [2]: 9%
DC50 [3]: > 1000 nM
GI50 (NCI-H1299): > 10000 nM
DC50 [4]: 250 nM
GI50 (NCI-H1944): 30 nM
Emax [5]: 90%
Activity [6]: 17%
Activity [7]: 30%
DC50 [8]: > 3300 nM
Activity [9]: 70%
GI50 (SK-MEL-28): > 10000 nM
Emax [10]: 68%
Emax [11]: 44%
DC50 [12]: 10 nM
Activity [13]: 13%
Activity [14]: 75%
Activity [15]: 70%
concentration at 48 h [16]: 60.5 ng/mL
concentration at 6 h [17]: 1100 ng/g
Emax [18]: 91%
DC50 [19]: 20 nM
concentration at 96 h [20]: 19.6 ng/mL
SMILES: Cc1ncsc1-c1ccc([C@H](C)NC(=O)[C@@H]2C[C@@H](O)CN2C(=O)[C@@H](NC(=O)[C@H]2CC[C@H](CN3CC4(CCC(n5cc(-c6cc(-c7ccccc7O)nnc6N)cn5)CC4)C3)CC2)C(C)(C)C)cc1
Imax (NCI-H1792): 25%
Imax (A549): 51%
Imax (NCI-H838): 83%
Imax (SK-MEL-5): 95%
